According to article PMC6268235, “A New Butanolide Compound from the Aerial Part of Lindera akoensis with Anti-inflammatory Activity” (Molecules, 2012):

Experiments:
[1] = test system: LPS-stimulated production of nitrite in RAW264.7 cell; test: Inhibition of LPS-stimulated nitrite (NO) production, Griess reaction; format: cell-based, murine; details: for IC50: Mus musculus, RAW264.7, RAW 264.7 cells, LPS 100 ng/mL, 24 h, Griess reaction, read-out: IC50 (decrease nitrite of LPS-stimulated production)
Source text: NO, produced from L-arginine by NO synthase, has various biological actions, e.g., as a defense and regulatory molecule for homeostatic equilibrium. However, in pathophysiologic conditions, such as inflammation, there is an increased production of NO by inducible NO synthase (iNOS). Macrophages have been expected to be an origin of inflammation, because they contain various chemical mediators that may be responsible for several inflammatory stages. The inhibitory activity toward NO production, induced by lipopolysaccharides (LPS), by murine macrophage-derived RAW264.7 cells was assayed.
(§1) A murine macrophage cell line RAW264.7 (BCRC No. 60001) was purchased from the Bioresources Collection and Research Center (BCRC, Hsinchu, Taiwan) of the Food Industry Research and Development Institute (Hsinchu, Taiwan). Cells were cultured in plastic dishes containing Dulbecco’s Modified Eagle Medium (DMEM, Sigma, St. Louis, MO, USA) supplemented with 10% fetal bovine serum (FBS, Sigma) in a CO2 incubator (5% CO2 in air) at 37 °C and subcultured every 3 days at a dilution of 1:5 using 0.05% trypsin-0.02% EDTA in Ca^2+-, Mg^2+-free phosphate-buffered saline (DPBS).
NO production was indirectly assessed by measuring the nitrite levels in the cultured media and serum determined by a colorimetric method based on the Griess reaction. The cells were incubated with butanolides (0, 3.125, 6.25, 12.5, 25 and 50 μg/mL) in the presence of LPS (100 ng/mL) at 37 °C for 24 h. Then, cells were dispensed into 96-well plates, and 100 μL of each supernatant was mixed with the same volume of Griess reagent (1% sulfanilamide, 0.1% naphthylethylenediamine dihydrochloride and 5% phosphoric acid) and incubated at room temperature for 10 min, the absorbance was measured at 540 nm with a Micro-Reader (Molecular Devices). Serum samples were diluted four times with distilled water and deproteinized by adding 1/20 volume of zinc sulfate (300 g/L) to a final concentration of 15 g/L. After centrifugation at 10,000 × g for 5 min at room temperature, 100 μL supernatant was applied to a microtiter plate well, followed by 100 μL of Griess reagent. After 10 min of color development at room temperature, the absorbance was measured at 540 nm with a Micro-Reader. By using sodium nitrite to generate a standard curve, the concentration of nitrite was measured form absorbance at 540 nm.
IC50 values were estimated using a non-linear regression algorithm (Sigma Plot 8.0; SPSS Inc. Chicago, IL, USA). Statistical evaluation was carried out by one-way analysis of variance (ANOVA followed by Scheffe’s multiple range tests).

RAW264.7 cells = test: Cell viability (MTT) in the presence of LPS; format: cell-based; details: RAW 264.7 cells, 100 ng/mL LPS, 24 h
Description: as §1
Cells (2 × 10^5) were cultured in 96-well plate containing DMEM supplemented with 10% FBS for 1 day to become nearly confluent. Then cells were cultured with compounds 1–5 in the presence of 100 ng/mL LPS (lipopolysaccharide) for 24 h. After that, the cells were washed twice with DPBS and incubated with 100 μL of 0.5 mg/mL MTT for 2 h at 37 °C testing for cell viability. The medium was then discarded and 100 μL dimethyl sulfoxide (DMSO) was added. After 30-min incubation, absorbance at 570 nm was read using a microplate reader (Molecular Devices, Sunnyvale, CA, USA).

Structure (SMILES) | IC50 [1] [µM] | LD50 (cell viability) (RAW264.7 cells) [µM] | anti-inflammatory activity (in words) ([1]; RAW264.7 cells, LPS-stimulated nitrite production)
CCCCCCCCCCC=CC1C(=O)OC(C)C1O (stereo not drawn) [Compound 1, 3β-((E)-dodec-1-enyl)-4β-hydroxy-5β-methyldihydrofuran-2-one] | 44.3 | 72.3 | 
CCCCCCCCCCCC/C=C/C1=CC(C)OC1=O (centres unmarked) [Compound 2, Akolactone A] | 180 | >211.9 | 
C=C1OC(=O)/C(=C/CCCCCCCCCCC)[C@H]1O [Compound 5, dihydroisoobtusilactone] | 97.9 | >178.6 | no significant active
C=CCCCCCCCCC/C=C1\C(=O)OC(C)[C@@H]1O (stereo partly drawn) [Compound 3, (3Z,4α,5β)-3-(dodec-11-enylidene)-4-hydroxy-5-methylbutalactone] | 2.4 | 49.3 | 
C=CCCCCCCCCC/C=C1/C(=O)OC(C)[C@@H]1O (stereo partly drawn) [Compound 4, (3E,4α,5β)-3-(dodec-11-enylidene)-4-hydroxy-5-methylbutalactone] | 1.4 | 67.1 | 
